# According to ChEMBL document CHEMBL1201862, “PubChem BioAssay data set” (2004):
#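 Growth conditions: 96-well plates. Treatment: test compound, 48 hours, 5 concentrations. Analysis: linear interpolation between bracketing concentrations; unreached endpoints set to highest concentration. Abbreviation: GI50, concentration required for 50% inhibition of growth.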 Active and inactive are the calls of the source. Rule as the data show it: active = GI50 up to about 1.1 µM and inactive = higher.
# Tests used:
# Experiment in all cases: inhibition of tumour cell growth, NCI panel, 48 h
# LOX IMVI = tested on: LOX IMVI
# SF-268 = tested on: SF-268
# NCI-H522 = tested on: NCI-H522
# COLO 205 = tested on: COLO 205
# A498 = tested on: A498
# UO-31 = tested on: UO-31
# SNB-75 = tested on: SNB-75
# 786-0 = tested on: 786-0
# SW-620 = tested on: SW-620
# HCT-116 = tested on: HCT-116
# U-251 = tested on: U-251
# DU-145 = tested on: DU-145
# SK-MEL-28 = tested on: SK-MEL-28
# IGROV-1 = tested on: IGROV-1
# KM12 = tested on: KM12
# SF-295 = tested on: SF-295
# NCI-H460 = tested on: NCI-H460
# NCI-H23 = tested on: NCI-H23
# MDA-MB-435 = tested on: MDA-MB-435
# MDA-MB-231 = tested on: MDA-MB-231
# NCI/ADR-RES = tested on: NCI/ADR-RES
# SR = tested on: SR
# ACHN = tested on: ACHN
# Malme-3M = tested on: Malme-3M
# SNB-19 = tested on: SNB-19
# K562 = tested on: K562
# SN12C = tested on: SN12C
# SK-MEL-2 = tested on: SK-MEL-2
# SK-OV-3 = tested on: SK-OV-3
# T47D = tested on: T47D
# TK-10 = tested on: TK-10
# UACC-62 = tested on: UACC-62
# HT-29 = tested on: HT-29
# M14 = tested on: M14
# HCC 2998 = tested on: HCC 2998
# PC-3 = tested on: PC-3
# UACC-257 = tested on: UACC-257
# CAKI-1 = tested on: CAKI-1
# CCRF-CEM = tested on: CCRF-CEM
# OVCAR-4 = tested on: OVCAR-4
# RXF 393 = tested on: RXF 393
# HCT-15 = tested on: HCT-15
# A549 = tested on: A549
# EKVX = tested on: EKVX
# SF-539 = tested on: SF-539
# MCF7 = tested on: MCF7
# OVCAR-3 = tested on: OVCAR-3
# HOP-62 = tested on: HOP-62
# NCI-H226 = tested on: NCI-H226
# OVCAR-5 = tested on: OVCAR-5
# OVCAR-8 = tested on: OVCAR-8
# HOP-92 = tested on: HOP-92
# MOLT-4 = tested on: MOLT-4
# HL-60 = tested on: HL-60
# MDA-N = tested on: MDA-N
# RPMI-8226 = tested on: RPMI-8226
# SK-MEL-5 = tested on: SK-MEL-5
# Hs-578T = tested on: Hs-578T
smiles,measurement,setting,value
O=C(O)CCC(NC(=O)c1ccc(OCc2nc3cc(C(F)(F)F)ccc3nc2-c2ccccc2)cc1)C(=O)O (stereo unspecified),GI50,LOX IMVI,> 100 µM (inactive)
same,GI50,SF-268,> 100 µM (inactive)
same,GI50,NCI-H522,> 100 µM (inactive)
same,GI50,COLO 205,> 100 µM (inactive)
same,GI50,A498,> 100 µM (inactive)
same,GI50,UO-31,> 100 µM (inactive)
same,GI50,SNB-75,> 100 µM (inactive)
same,GI50,786-0,> 100 µM (inactive)
same,GI50,SW-620,> 100 µM (inactive)
same,GI50,HCT-116,> 100 µM (inactive)
same,GI50,U-251,> 100 µM (inactive)
same,GI50,DU-145,> 100 µM (inactive)
same,GI50,SK-MEL-28,> 100 µM (inactive)
same,GI50,IGROV-1,> 100 µM (inactive)
same,GI50,KM12,> 100 µM (inactive)
same,GI50,SF-295,> 100 µM (inactive)
same,GI50,NCI-H460,> 100 µM (inactive)
same,GI50,NCI-H23,> 100 µM (inactive)
same,GI50,MDA-MB-435,> 100 µM (inactive)
same,GI50,MDA-MB-231,> 100 µM (inactive)
same,GI50,NCI/ADR-RES,> 100 µM (inactive)
same,GI50,SR,9.31 µM (inactive)
same,GI50,ACHN,> 100 µM (inactive)
same,GI50,Malme-3M,> 100 µM (inactive)
same,GI50,SNB-19,> 100 µM (inactive)
same,GI50,K562,> 100 µM (inactive)
same,GI50,SN12C,> 100 µM (inactive)
same,GI50,SK-MEL-2,> 100 µM (inactive)
same,GI50,SK-OV-3,> 100 µM (inactive)
same,GI50,T47D,> 100 µM (inactive)
same,GI50,TK-10,> 100 µM (inactive)
same,GI50,UACC-62,> 100 µM (inactive)
same,GI50,HT-29,> 100 µM (inactive)
same,GI50,M14,> 100 µM (inactive)
same,GI50,HCC 2998,> 100 µM (inactive)
same,GI50,PC-3,> 100 µM (inactive)
same,GI50,UACC-257,> 100 µM (inactive)
same,GI50,CAKI-1,45.4 µM (inactive)
same,GI50,CCRF-CEM,> 100 µM (inactive)
same,GI50,OVCAR-4,> 100 µM (inactive)
same,GI50,RXF 393,> 100 µM (inactive)
same,GI50,HCT-15,> 100 µM
same,GI50,A549,> 100 µM (inactive)
same,GI50,EKVX,> 100 µM (inactive)
same,GI50,SF-539,> 100 µM (inactive)
same,GI50,MCF7,> 100 µM (inactive)
same,GI50,OVCAR-3,> 100 µM (inactive)
same,GI50,HOP-62,> 100 µM (inactive)
same,GI50,NCI-H226,> 100 µM (inactive)
same,GI50,OVCAR-5,> 100 µM (inactive)
same,GI50,OVCAR-8,> 100 µM (inactive)
same,GI50,HOP-92,> 100 µM (inactive)
same,GI50,MOLT-4,> 100 µM (inactive)
same,GI50,HL-60,> 100 µM (inactive)
CN(C)C1COC2Cc3ccccc3C1O2 (stereo unspecified),GI50,LOX IMVI,> 100 µM (inactive)
same,GI50,SF-268,> 100 µM (inactive)
same,GI50,HCT-116,> 100 µM (inactive)
same,GI50,SF-295,> 100 µM (inactive)
same,GI50,NCI-H23,> 100 µM (inactive)
same,GI50,SR,> 100 µM (inactive)
same,GI50,ACHN,> 100 µM (inactive)
same,GI50,K562,> 100 µM (inactive)
same,GI50,SN12C,> 100 µM (inactive)
same,GI50,SK-OV-3,> 100 µM (inactive)
same,GI50,TK-10,> 100 µM (inactive)
same,GI50,HT-29,> 100 µM (inactive)
same,GI50,M14,> 100 µM (inactive)
same,GI50,CAKI-1,> 100 µM (inactive)
same,GI50,OVCAR-4,> 100 µM (inactive)
same,GI50,RXF 393,> 100 µM (inactive)
same,GI50,HCT-15,> 100 µM
same,GI50,A549,> 100 µM (inactive)
same,GI50,OVCAR-5,> 100 µM (inactive)
same,GI50,OVCAR-8,> 100 µM (inactive)
same,GI50,HOP-92,> 100 µM (inactive)
NC(=O)/N=C1\NCCC(=O)N1CCc1c[nH]c2ccccc12,GI50,LOX IMVI,11 µM (inactive)
same,GI50,SF-268,13.8 µM (inactive)
same,GI50,NCI-H522,25.7 µM (inactive)
same,GI50,COLO 205,14.1 µM (inactive)
same,GI50,A498,17.3 µM (inactive)
same,GI50,UO-31,15.9 µM (inactive)
same,GI50,SNB-75,10.2 µM (inactive)
same,GI50,786-0,24 µM (inactive)
same,GI50,SW-620,26.7 µM (inactive)
same,GI50,HCT-116,12.4 µM (inactive)
same,GI50,U-251,45.2 µM (inactive)
same,GI50,DU-145,21 µM (inactive)
same,GI50,SK-MEL-28,20.9 µM (inactive)
same,GI50,MDA-N,19.9 µM (inactive)
same,GI50,IGROV-1,21.2 µM (inactive)
same,GI50,KM12,37.8 µM (inactive)
same,GI50,SF-295,41.2 µM (inactive)
same,GI50,NCI-H460,16.3 µM (inactive)
same,GI50,NCI-H23,22.7 µM (inactive)
same,GI50,MDA-MB-435,17.8 µM (inactive)
same,GI50,MDA-MB-231,8.09 µM (inactive)
same,GI50,NCI/ADR-RES,17.2 µM (inactive)
same,GI50,SR,25.8 µM (inactive)
same,GI50,ACHN,21.5 µM (inactive)
same,GI50,Malme-3M,18.4 µM (inactive)
same,GI50,RPMI-8226,18.7 µM (inactive)
same,GI50,SNB-19,21.4 µM (inactive)
same,GI50,K562,12.4 µM (inactive)
same,GI50,SN12C,21.9 µM (inactive)
same,GI50,SK-MEL-2,14.2 µM (inactive)
same,GI50,SK-OV-3,50.7 µM (inactive)
same,GI50,T47D,27.5 µM (inactive)
same,GI50,TK-10,17.5 µM (inactive)
same,GI50,UACC-62,18.2 µM (inactive)
same,GI50,HT-29,17.1 µM (inactive)
same,GI50,M14,14.8 µM (inactive)
same,GI50,HCC 2998,19.4 µM (inactive)
same,GI50,PC-3,11.9 µM (inactive)
same,GI50,UACC-257,18.5 µM (inactive)
same,GI50,CAKI-1,0.426 µM (active)
same,GI50,SK-MEL-5,18.7 µM (inactive)
same,GI50,CCRF-CEM,14.4 µM (inactive)
same,GI50,OVCAR-4,19 µM (inactive)
same,GI50,RXF 393,12.1 µM (inactive)
same,GI50,HCT-15,20 µM
same,GI50,A549,18.9 µM (inactive)
same,GI50,EKVX,14.6 µM (inactive)
same,GI50,SF-539,15.6 µM (inactive)
same,GI50,OVCAR-3,16 µM (inactive)
same,GI50,HOP-62,19.4 µM (inactive)
same,GI50,NCI-H226,18.2 µM (inactive)
same,GI50,OVCAR-5,39.4 µM (inactive)
same,GI50,Hs-578T,20.5 µM (inactive)
same,GI50,OVCAR-8,17.9 µM (inactive)
same,GI50,MOLT-4,14.5 µM (inactive)
same,GI50,HL-60,19.2 µM (inactive)
